Test results: US20190151271A1, “COMPOSITIONS AND METHODS FOR TREATMENT OF EYE DISEASES” (The Johns Hopkins University, priority 2017, published 2019)

Key:
[1] = Evaluation of retinal penetration of NACA: NACA/NAC levels in plasma, aqueous, vitreous and retina after 20 mg/mL NACA in drinking water for 7 days; format: in vivo, mice (rd10 and wild type C57/BL6); details: for mean level in aqueous humor compared with plasma: 20 mg/mL NACA in drinking water (FIG. 2); for measurability in the retina: animals treated with NACA, N=20 eyes per strain (FIG. 4); for mean level in retina compared with plasma: either type of mice (FIG. 4 compared to FIG. 1); for mean retina levels: 20 mg/mL NACA in drinking water P28-P35, estimated dose 60-80 mg/day
Method: The objective of this study was to determine retinal levels of NACA/NAC after administration of 20 mg/mL NACA in drinking water for 7 days in a mouse model of RP and in wild type mice. This experiment was designed to provide rapid confirmation that NACA and/or NAC penetrate the retina following oral administration and to allow comparison of the tissue levels of NACA and NAC in vitreous and retina to plasma. It also provided a comparison of retinal penetration in mice with RP and wild type mice to determine if the breakdown in the blood-retinal barrier in RP affects the levels of NACA in the retina.
Animals and Treatments. Mice were treated in accordance with the recommendations of the Association for Research in Vision and Ophthalmology. Litters of homozygous rd10/rd10 mice (B6.CXB1-Pde6brd10/J) and wild type C57/BL6 mice (The Jackson Laboratory, Bar Harbor, Me.) were used for these studies.
Starting on post-natal day 28 (P28), animals were given normal drinking water (controls, n=10 for each strain) or water containing 20 mg/ml NACA (n=10 for each strain).
Analysis of NACA and NAC. Upon sacrifice of the mice on P35 (post-natal day 35), retina, aqueous, vitreous and plasma were collected, weighed, and stabilized as quickly as possible and stored at −80° C. prior to shipment to AIT Bioscience, LLC (Indianapolis, Ind.). The qualified bioanalytical method (BAM.0445.01) for the quantitation of total NAC NACA in K2EDTA was based on derivatization, protein precipitation extraction, and LC-MS/MS instrumental analysis. Any disulfides were reduced to free thiols and subsequently reacted with 2-chloro-1-methylpyridinium iodide (CMPI) to form stable thioethers. The thioether derivatives were detected by LC-MS/MS. Stable label isotope internal standards were used. The method covered a concentration range from 50.0 to 50,000 ng/mL.
Evaluation of Retinal Penetration of NACA. To determine retinal levels of NACA/NAC after administration of 20 mg/mL NACA in drinking water for 7 days. This experiment was designed to provide rapid confirmation that NACA penetrates the retina following oral administration and to compare levels of NACA and its major metabolite, NAC. in retina, aqueous humor, vitreous humor and plasma. This experiment was also designed to evaluate if the breakdown in the blood-retinal barrier in RP (simulated by the rd10 mice) affects the levels of NACA in the retina by comparing animals with RP to wild type mice.
Rd10 and C57BL/6 wild type mice began treatment at P28 (post-natal day 28), at P35 mice were euthanized and plasma, vitreous and retina samples were sent to AITBioscences (Indianapolis, Ind.) for determination of NACA and NAC levels by a validated method using high-pressure liquid chromatography with tandem mass spectrometric/mass spectrometric detection (LCMS). Experimental groups: (n=10/group). The research was performed in 4 discrete treatment groups: • 1. Rd10 allowed to freely drink NACA 20 mg/mL-spiked drinking water with measurements at P35; • 2. Rd10 allowed to freely drink untreated water with measurements at P35; • 3. C57/BL6 NACA 20 mg/mL in drinking water measurements at P35; • 4. C57/BL6 allowed to freely drink untreated water with measurements at P35.

[2] = oral formulations; cited from earlier work
[3] = cited from earlier work; for plasma level: rats, within 30 minutes following oral administration of 500 mg/kg NACA; for detection in the brain: within 30 minutes following oral administration of NACA
[4] = test system: cone survival; details: orally administered; cited from earlier work
[5] = test system: mice exposed to phototoxic doses of light; details: cited from earlier work
[6] = test system: rd10 mice; details: 7 mg/mL NACA versus 20 mg/mL NAC in drinking water, P35 and P50; cited from earlier work
[7] = test system: human retinal pigment epithelial cells; details: cited from earlier work

With CC(=O)N[C@@H](CS)C(=O)O [NAC, N-Acetylcysteine, reference compound] the “mean level in aqueous humor compared with plasma” value [1] was “lower than in plasma”, the “measurability in the retina” value [1] was “measurable in all animals treated with NACA” and the “mean level in retina compared with plasma” value [1] was “higher, in either type of mice, than those observed in plasma”. The “systemic bioavailability for oral administration” value [2] was under 10%, the plasma level [3] was 84.55 ± 6.73 µM and the “detection in the brain” value [3] was “detected in the brain”. For the same compound, the “cone survival and cone function” value [4] was “promotes prolonged cone survival and maintenance of cone function”.

With N-acetylcysteine amide [NACA] the “mean level in aqueous humor compared with plasma” value [1] was “lower than in plasma”, the “ratio of NACA:NAC in the retina, rd10 mice compared with C57/B16 mice” value ([1]; 20 mg/mL NACA in drinking water (FIG. 5)) was “greater in the retina of rd10 mice than in C57/B16 mice” and the “mean plasma level, rd10 mice compared with wild type” value ([1]; 20 mg/ml NACA in drinking water (FIG. 1)) was “greater in rd10 mice than in the wild type”. The “level in vitreous humor” value ([1]; N=7 or 8 eyes rd10, N=10 eyes C57/B16 (FIG. 3)) was “A similar pattern was observed”, the “mean concentration in aqueous humor, rd10 mice compared with wild type” value ([1]; N=8 eyes rd10, N=10 C57/B16 (FIG. 2)) was “higher in rd10 mice than wild type” and the “measurability in the retina” value [1] was “measurable in all animals treated with NACA”. The “mean NACA level in plasma compared with NAC level” value ([1]; both strains, 20 mg/ml NACA in drinking water, N=10 per strain (FIG. 1)) was “greater than the NAC levels in both strains of mice”, the “mean level in retina compared with plasma” value [1] was “higher, in either type of mice, than those observed in plasma” and the mean retina levels ([1]; rd10 mice) was “approximately 6.5 μg/g”. For the same compound, the mean retina levels ([1]; wild type mice) was about 2.4 µg/g, the “retinal pigment epithelial cell integrity, outer nuclear layer cell death, photoreceptor function” value [5] was “maintained retinal pigment epithelial cell integrity, prevented outer nuclear layer cell death and rescued photoreceptor function” and the plasma level [3] was 15.07 ± 5.08 µM. For the same compound, the “detection in the brain” value [3] was “detected in the brain”, the “protection of scotopic and photopic b-waves and cone density” value [6] was “more effective” and the “protection against oxidative stress-induced cellular injury and death” value [7] was “protected against oxidative stress-induced cellular injury and death”.
